Reference: patent publication US20240243327A1, “NAPHTHALENE DIIMIDE COMPOUND AND REDOX FLOW BATTERY CONTAINING THE SAME” (Korea Advanced Institute of Science and Technology, priority 2023, published 2024)
Like-named read-outs stand apart in the source and are kept apart here. Values belong to the molecule of their own block, whether it stands above or below them.

Experiment: Analysis of solubility (UV-Vis calibration at 361 nm, saturated solution at room temperature)
Format: physicochemical
Details: for solubility: thermodynamic from solid
Description: First, the compound was dissolved in 2 mL of deionized water (DI water), and then the UV-Vis spectrum of the solution was measured. 1 mL of the solution was taken out, 1 mL of deionized water was added to reduce the concentration by half, and then the UV-Vis spectrum was measured. This process was repeated several times. A calibration curve was drawn using λ=361 nm (π-π* transition) from the UV-Vis spectrum. At this time, a UV-Vis spectrum of deionized water was used for baseline measurement. […] The solution was filtered, and then the total volume of the solution was recorded. […] of the filtrate was taken, and then deionized water was added to bring the volume to 2 mL. Thereafter, 1 mL of the solution was taken and fresh deionized water was added to dilute the solution to a volume of 2 mL. The UV-Vis spectrum was recorded until the absorbance at λ=361 nm was smaller than 1 a.u. The linear equation of the calibration curve was used to calculate the concentration of the solution, and the molarity equation was used to estimate the maximum solubility of the compound.

solubility (1.5 M KCl aqueous solution, saline or isotonic, KCl aqueous solution (method: 1.5 M KCl), room temperature, read-out: solubility in the KCl solution): ~1200 mM
solubility (deionized water, room temperature, read-out: solubility in water): ~1500 mM
Compound: C[N+](C)(C)CCC[N+](C)(C)CCCN1C(=O)c2ccc3c4c(ccc(c24)C1=O)C(=O)N(CCC[N+](C)(C)CCC[N+](C)(C)C)C3=O [Example 1]

solubility in water (deionized water, room temperature, result in words): substantially insoluble in water
Compound: CN1C(=O)c2ccc3c4c(ccc(c24)C1=O)C(=O)N(C)C3=O [Comparative Example 1, 2,7-dimethylbenzo [lmn] [3,8] phenanthroline-1,3,6,8 (2H,7H) -tetraone]

solubility (saline or isotonic, 1 M KCl solution as printed, read-out: solubility in the 1 M KCl solution): ~25 mM
Compound: O=C(O)CN1C(=O)c2ccc3c4c(ccc(c24)C1=O)C(=O)N(CC(=O)O)C3=O [Comparative Example 2, 2,2′-(1,3,6,8-tetraoxo-1,3,6,8-tetrahydrobenzo [lmn] [3,8]phenanthroline-2,7-diyl)diacetate Potassium]
